The record followed here is patent US9695193B2, “Inhibitors of Plasmodium falciparum equilibrative nucleoside transporter type I as anti-parasitic compounds” (The Trustees of Columbia University in the City of New York, priority 2013, dated 2017).

Where two headings read alike, the source gives them in different places.

Holding throughout (assay type): cell-based
For assay [1], the system named is Dd2 parasite. The assay can be described thus: Plasmodium falciparum parasite viability assay (Dd2). The note with it: Dd2, high purine media, Mean ± SD.
In assay [2] the target is T1, PfENT1-CO (Plasmodium falciparum, UniProt Q8IDM6).
T1 construct: expressed in transfected cells; host or cells: purine auxotrophic ade2Δ yeast (Saccharomyces cerevisiae)
T1 sequence (Q8IDM6 whole entry): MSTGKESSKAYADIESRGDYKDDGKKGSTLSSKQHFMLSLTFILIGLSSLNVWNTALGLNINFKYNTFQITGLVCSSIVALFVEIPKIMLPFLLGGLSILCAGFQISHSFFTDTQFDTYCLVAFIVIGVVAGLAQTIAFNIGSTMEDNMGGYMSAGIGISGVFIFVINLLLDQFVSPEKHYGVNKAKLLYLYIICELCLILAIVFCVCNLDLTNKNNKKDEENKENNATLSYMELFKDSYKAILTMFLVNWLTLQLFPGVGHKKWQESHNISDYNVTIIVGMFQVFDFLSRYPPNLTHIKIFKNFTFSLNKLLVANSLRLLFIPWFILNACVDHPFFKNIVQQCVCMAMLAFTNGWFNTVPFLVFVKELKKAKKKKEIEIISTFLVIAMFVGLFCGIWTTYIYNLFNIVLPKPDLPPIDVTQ
The assay can be described thus: [3H]adenosine uptake into PfENT1-CO expressing ade2Δ yeast. The note with it: uptake over 15 minutes; Mean ± SD, N ≧ 3. The text has this: FIGS. 4A-C are graphs showing the validation of selected compounds identified as Plasmodium falciparum Equilibrative Nucleoside Transporter Type I (PfENT1) inhibitors in the high-throughput screen (HTS). […] The means values from single experiments are shown. In the key, CQ=chloroquine, and the Table 1 compounds are referenced as symbols indicating HTS rank #1-7, 13, and 19.
(§1) The means values from single experiments are shown. In the key, CQ=chloroquine, and the Table 1 compounds are referenced as symbols indicating HTS rank #1-7, 13, and 19. In this assay, inhibitors of PfENT1 […] yeast growth (FIGS. 4B-C).

In assay [3] the test system is P. falciparum 3D7 parasites. The assay is described as follows: [3H]adenosine uptake into trophozoite-stage P. falciparum 3D7 parasites. The settings on record: Plasmodium falciparum, uptake over 15 minutes, Mean ± SD, N ≧ 3. The text has this:
FIGS. 5A-E are graphs and images reflecting the inhibitory effects of selected PfENT1 inhibiting compounds with P. falciparum. FIGS. 5A-C are graphs illustrating the inhibitory effects of selected PfENT1 inhibiting compounds with P. falciparum.

In assay [4] the test system is P. falciparum parasites (3D7 strain). The assay can be described thus: Plasmodium falciparum cytotoxicity assay (3D7 strain, SYBR-Green). The note with it: 72-96 hours, Mean ± SD. Here is the method: Plasmodium falciparum Cytotoxicity Assay
P. falciparum parasites (3D7 strain-chloroquine sensitive) are grown in in vitro culture in human erythrocytes. Each well is inoculated with a low density of parasites in standard parasite growth media with supplemented hypoxanthine (10 or 367 μM). Increasing concentrations of drugs are added and parasites are allowed to grow for 72-96 hours in 5% CO2/5% O2/90% N2 gas at 37° C. At the end of the experiment, parasites are lysed, SYBR-Green dye in lysis solution is added and the fluorescence intensity is measured for each well.

Assay [5] deals with T2, PfENT1 (Plasmodium falciparum, UniProt Q8IDM6).
T2 construct: expressed in transfected cells; host or cells: fui1Δ yeast (Saccharomyces cerevisiae), co-expressing GFP
T2 sequence (Q8IDM6 whole entry): as above
The settings on record: primary HTS, compounds at 10 μM, 125 μM 5-FUrd. The method in brief: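 fui1Δ yeast expressing PfENT1 and GFP were grown with 125 μM 5-fluorouridine, so growth reflects blocked 5-FUrd uptake. Compounds were screened at 10 μM. Growth scored by OD620 turbidity and GFP fluorescence, and hits had to be positive on both.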

The target of assay [6] is T3, PfENT1-HA-CO (Plasmodium falciparum, UniProt Q8IDM6).
T3 construct: HA; expressed in transfected cells; host or cells: fui1Δ yeast (Saccharomyces cerevisiae)
T3 sequence (Q8IDM6 whole entry): as above
The assay can be described thus: Concentration-dependent rescue of PfENT1-HA-CO-expressing fui1Δ yeast from 5-FUrd induced death. Here is the method: In the primary screen the compounds were tested at a concentration of 10 μM. Hits were identified by the growth of fui1Δ yeast expressing PfENT1 and Green Fluorescent Protein (GFP) in the presence of the cytotoxic nucleoside 5-fluorouridine (5-FUrd). 5-FUrd is transported by PfENT1. PfENT1 expressing fui1Δ yeast will only grow in the presence of 125 μM 5-FUrd if a PfENT1 inhibitor blocks the uptake of 5-FUrd into the yeast. Significant yeast growth in the HTS in 384 well plates was determined by two criteria: 1) turbidity as determined by the optical density at 620 nm (OD620) and 2) GFP fluorescence intensity. Positive responses were signal intensities greater than four standard deviations above the mean of the negative growth control wells. Hits had to be positive by both criteria. From the library screen, 171 chemical entities were identified as positive by both criteria (Table 2).
Of the 171 hits from the primary HTS, nine were chosen for more extensive validation using a series of secondary assays. These nine compounds included the top seven hits (HTS rank #1-7 as indicated in Tables 1 and 2), the first hit identified (compound HTS rank #19) and compound HTS rank #13, which was a unique chemical scaffold relative to the other 8 compounds. The secondary assays used to validate the nine selected hits include 1) repeat of the primary HTS using a series of compound concentrations to determine the concentration-response relationship for each compound, 2) testing in an alternative yeast-based assay in purine auxotrophic ade2Δ yeast expressing PfENT1 (described below, FIG. 1 and FIG. 4B), and 3) a Plasmodium falciparum cytotoxicity assay (described below, FIGS. 5A-B.). These assays allowed further confirmation the hits, determining the concentration-response relationships in the yeast-based assays and the concentration dependence of their ability to kill Plasmodium falciparum parasites during growth in in vitro culture. There was a roughly linear correlation between the compounds' IC50s measured in the two yeast-based assays. All nine compounds were tested in the P. falciparum cytotoxicity assay (FIGS. 5A-B).
as §1

[7] abbreviates: 3D7, high purine media (hypoxanthine 367 μM), read-out: IC50 3D7 parasite viability-high purine media.
Where [8] appears, read: 3D7, low purine media (hypoxanthine 10 μM), read-out: IC50 3D7 parasite viability-low purine media.

What is called IC50 is the concentration needed to halve the response being measured. On to `COc1cc(COc2ccc3c(C)cc(=O)oc3c2)cc(OC)c1OC` [HTS Rank #3, 4-methyl-7-[(3,4,5-trimethoxybenzyl)oxy]-2H-chromen-2-one], for which the concentration for half-maximal inhibition (IC50) in assay [1] was 36.2 ± 6 µM; in assay [2] it was 2.4 ± 1.5 nM; in assay [3] it was 6.4 ± 3 nM; in assay [4] (setting [7]), 41 ± 4.3 µM; in assay [4] (setting [8]), 19.2 ± 4.3 µM; in assay [6], 2.3 ± 0.9 µM. In assay [5], the “Avg Normalized % maximal activity” value is 84.71%.
On to `O=C(Nc1ccc2nc(NC(=O)c3ccco3)sc2c1)c1ccco1` [compound 1], for which the IC50 in assay [1] is 25.8 ± 1.3 µM; in assay [2], 3 ± 1.3 nM; in assay [3], 5.4 ± 2.9 nM; in assay [4] (setting [7]), 37.7 ± 2 µM; in assay [4] (setting [8]), 31.1 ± 4.7 µM; in assay [6], 0.8 µM. The “Avg Normalized % maximal activity” value in assay [5] turned out to be 97.22%.
With `O=C(Nc1ccc(-c2nc3ncccc3o2)cc1)c1ccccc1Br` [compound 2, 2-bromo-N-(4-[1,3]oxazolo [4,5-b]pyridin-2-ylphenyl)benzamide], the IC50 worked out at 52.4 ± 5.7 µM in assay [1]; 10.1 ± 8.4 nM in assay [2]; 28 ± 12.3 nM in assay [3]; 53.4 ± 11.1 µM in assay [4] (setting [7]); 31.2 ± 7.7 µM in assay [4] (setting [8]); 6 ± 1.7 µM in assay [6]. In assay [5], the “Avg Normalized % maximal activity” value was found to be 91.94%.
For the compound `O=C(Nc1ccc(-c2nnc(-c3ccco3)o2)cc1)c1ccco1` [compound 4, N-{4-[5-(2-furyl)-1,3,4-oxadiazol-2-yl]phenyl}-2-furamide], the IC50 in assay [1] stood at 15.3 ± 2.7 µM; in assay [2], 13.7 ± 7.5 nM; in assay [3] it was 45.8 ± 24.1 nM; in assay [4] (setting [7]), 14.7 ± 1.9 µM; in assay [4] (setting [8]), 15 ± 1.5 µM; in assay [6] it was 5.7 ± 0.8 µM. In assay [5], the “Avg Normalized % maximal activity” value was found to be 74.03%.
Consider `Cn1cc(C(=O)C(=O)Nc2ccc(C(=O)N3CCCC3)cc2)c2ccccc21` [compound 5, 2-(1-methyl-1H-indol-3-yl)-2-oxo-N-[4-(pyrrolidin-1-ylcarbonyl)phenyl]acetamide], for which the IC50 is 28.9 ± 2.6 µM in assay [1]; 22.7 ± 7.2 nM in assay [2]; 38.6 ± 20.1 nM in assay [3]; 33.1 ± 0.5 µM in assay [4] (setting [7]); 35.5 ± 0.7 µM in assay [4] (setting [8]); 6.5 ± 1.5 µM in assay [6]. Moreover, in assay [5], the “Avg Normalized % maximal activity” value turned out to be 64.07%.
With `O=C(Nc1cccc(-c2nc3ncccc3o2)c1)c1cccc(F)c1` [compound 6, 3-fluoro-N-(3-[1,3]oxazolo [4,5-b]pyridin-2-ylphenyl)benzamide], the IC50 came to 38.8 ± 4.9 µM in assay [1]; 9.6 ± 7.4 nM in assay [2]; 19.8 ± 12.9 nM in assay [3]; 33.7 ± 5 µM in assay [4] (setting [7]); 34.8 ± 2.4 µM in assay [4] (setting [8]); 5.7 ± 1.3 µM in assay [6]. The “Avg Normalized % maximal activity” value in assay [5] came out at 59.06%.
On to `COc1ccccc1C(=O)Nc1cccc(-c2nc3ncccc3o2)c1` [compound 7, 2-methoxy-N-(3-[1,3]oxazolo [4,5-b]pyridin-2-ylphenyl)benzamide], for which the IC50 worked out at 31 ± 0.6 µM in assay [1]; 10.9 ± 6.8 nM in assay [2]; 24.8 ± 17.4 nM in assay [3]; 44.8 ± 3.8 µM in assay [4] (setting [7]); 43.6 ± 4.4 µM in assay [4] (setting [8]); 6.4 ± 0.9 µM in assay [6]. The “Avg Normalized % maximal activity” value in assay [5] is 55.05%.
On to `Cc1ccccc1/C=C/c1nc2ccccc2c(=O)[nH]1` [compound 13, 2-[2-(2-methylphenyl)vinyl]-4(3H)-quinazolinone], for which the IC50 in assay [1] was found to be 2.6 ± 0.2 µM; in assay [3] it was 21.6 ± 14.2 nM; in assay [4] (setting [7]), 6.7 ± 0.5 µM; in assay [4] (setting [8]), 6.9 ± 0.4 µM; in assay [6] it was 4.7 ± 2.9 µM. Besides, in assay [5], the “Avg Normalized % maximal activity” value was 24.69%.
Consider `O=C(Nc1ccc(Cl)c(-c2nc3ncccc3o2)c1)c1cccs1` [compound 19, N-(4-chloro-3-[1,3]oxazolo [4,5-b]pyridin-2-ylphenyl)-2-thiophenecarboxamide], for which the IC50 worked out at 37.4 ± 1.6 µM in assay [1]; 38.4 ± 16.5 nM in assay [2]; 17.9 ± 12.7 nM in assay [3]; 42.9 ± 2.8 µM in assay [4] (setting [7]); 43.2 ± 2.9 µM in assay [4] (setting [8]); 5.4 ± 0.8 µM in assay [6]. Moreover, the “Avg Normalized % maximal activity” value in assay [5] is 21.24%.
On to `COc1cccc(C(CC(=O)O)S(C)(=O)=O)c1` (stereo not drawn) [compound 159], for which the “Avg Normalized % maximal activity” value in assay [5] is 2.12%.
Still for that read-out and setting: with `CC(=O)Nc1ccc2nc(SCC(=O)NC3CCCCC3)sc2c1` [compound 160] the figure was 2.09%; with `CCOC(=O)CSc1nnc2c3ccccc3n(CC)c2n1` [compound 161], 2.08%.
With `COCc1cc(C)nc2sc(C(=O)Nc3ccc(NC(C)=O)cc3)c(N)c12` [compound 162, N-[4-(acetylamino)phenyl]-3-amino-4-(methoxymethyl)-6-methylthieno [2,3-b]pyridine-2-carboxamide], in assay [5], the “Avg Normalized % maximal activity” value is 2.04%.
Take `COc1ccc(OC)c(NC(=O)COc2ccc3ccccc3c2)c1` [compound 163, N-(2,5-dimethoxyphenyl)-2-(2-naphthyloxy)acetamide]: the “Avg Normalized % maximal activity” value in assay [5] was 2.04%.
For the compound `O=[N+]([O-])c1ccc(C2Nc3c(F)cccc3C3C=CCC32)cc1` (stereo not drawn) [compound 164, 6-fluoro-4-(4-nitrophenyl)-3a,4,5,9b-tetrahydro-3H-cyclopenta[c]quinoline], the “Avg Normalized % maximal activity” value in assay [5] was determined as 2.01%.
On to `CCC(C(=O)NCc1cccs1)c1ccccc1` (stereo not drawn) [compound 165, 2-phenyl-N-(2-thienylmethyl)butanamide], for which, in assay [5], the “Avg Normalized % maximal activity” value stood at 2.01%.
For `O=c1c2c3nc4ccccc4nc3n(Cc3ccco3)c2ncn1Cc1ccco1` [compound 166], the “Avg Normalized % maximal activity” value in assay [5] amounted to 1.98%.
For the compound `O=C(Nc1c(-c2ccccc2)nc2ccc(Cl)cn12)c1ccccc1` [compound 167, N-(6-chloro-2-phenylimidazo [1,2-a]pyridin-3-yl)benzamide], the “Avg Normalized % maximal activity” value in assay [5] came to 1.96%.
Consider `CC(=O)Nc1ccc(NC(=O)CSc2nc3ccccc3s2)cc1` [compound 168, N-[4-(acetylamino)phenyl]-2-(1,3-benzothiazol-2-ylthio)acetamide], for which the “Avg Normalized % maximal activity” value in assay [5] was 1.93%.
In the case of `Cc1ccc(NC(=O)Nc2ccc(F)cc2)nc1` [compound 169, N-(4-fluorophenyl)-N′-(5-methyl-2-pyridinyl)urea], the “Avg Normalized % maximal activity” value in assay [5] is 1.85%.
For `O=C(c1cc2nc3c(c(C(F)(F)F)n2n1)CCc1ccccc1-3)N1CCCC1` [compound 170, 10-(1-pyrrolidinyl-carbonyl)-7-(trifluoromethyl)-5,6-dihydrobenzo[h] pyrazolo[5,1-b] quinazoline], in assay [5], the “Avg Normalized % maximal activity” value is reported as 1.74%.
With `COc1ccc(OC)c(NC(=O)CC2Nc3cc(C)c(C)cc3NC2=O)c1` (stereo not drawn) [compound 171, N-(2,5-dimethoxyphenyl)-2-(6,7-dimethyl-3-oxo-1,2,3,4-tetrahydro-2-quinoxalinyl)acetamide], the “Avg Normalized % maximal activity” value in assay [5] is listed as 1.60%.
